Source: patent US20240376094A2, “SELECTIVE BCL-XL PROTAC COMPOUNDS AND METHODS OF USE” (Les Laboratoires Servier, priority 2021, published 2024)

What was measured:
Format in all cases: cell-based
NCI-H1650 = test: CellTiter-Glo 3D proliferation assay, NCI-H1650 spheroids; conditions: Homo sapiens, NCI-H1650, 120 h, 5 days; for Emax: read-out: NCI-H1650 Span (Amax)
In short: (§1)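 Both lines grown in RPMI-1640 + 10% FBS. COR-L105 plated flat at 1,000 cells/well overnight; NCI-H1650 grown as spheroids, 3,000 cells/well, 72 h. Compounds at 0.508 nM-10 μM final for 5 days, 37° C. ATP read by CellTiter-Glo (3D version for spheroids); IC50 from variable-slope fit normalized to untreated cells.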

endogenous BCL-xL = target: T1, endogenous BCL-xL (Homo sapiens, UniProt Q07817); test: Degradation of endogenous BCL-xL in COR-L105 (ProteinSimple Jess); conditions: COR-L105, 24 h, COR-L105, dose 300 nM, read-out: % BCL-xL vs. Untreated, COR-L105
T1 construct: endogenous in cells; host or cells: COR-L105 (ECACC No. 92031918); NCI-H1650 (ATCC No. CRL-5883)
T1 sequence (Q07817 whole entry): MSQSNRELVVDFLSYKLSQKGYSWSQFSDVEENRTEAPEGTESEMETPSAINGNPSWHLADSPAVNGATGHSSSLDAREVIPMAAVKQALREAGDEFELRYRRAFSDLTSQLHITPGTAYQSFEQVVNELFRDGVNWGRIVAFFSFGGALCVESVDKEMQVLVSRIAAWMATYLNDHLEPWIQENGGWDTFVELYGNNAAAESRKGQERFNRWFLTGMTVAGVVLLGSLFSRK
Protocol: The BCL-xL degrader low molecular weight compounds were tested against two endogenous cancer cell lines: • COR-L105: ECACC No. 92031918 cultured in RPMI-1640+10% FBS • NCI-H1650: (ATCC No. CRL-5883 cultured in RPMI-1640+10% FBS
The ability of the BCL-xL degrader low molecular weight compounds to degrade endogenous BCL-xL was assessed using the ProteinSimple 2-40 kDa Jess Separation Module.
Cell lines were cultured in media that is optimal for their growth at 5% CO2, 37° C. in a tissue culture incubator. Prior to seeding for the degradation assay, the cells were split at least 2 days before the assay to ensure optimal growth density. On the day of seeding, adherent cells were lifted off tissue culture flasks using 0.25% trypsin. Cell viability and cell density were determined using a cell counter (Vi-Cell XR Cell Viability Analyzer, Beckman Coulter). Cells with higher than 85% viability were seeded for the assay.
The COR-L105 and the NCI-H1650 cell line were seeded in 6-well clear TC-treated multiple well plates (Costar® cat. #3516). Cells were seeded at a density of 2,000,000 cells per well in 2.5 mL of standard growth media. Plates were incubated at 5% CO2, 37° C. overnight in a tissue culture incubator. On the day of dosing, BCL-xL degrader low molecular weight compounds and a BCL-xL inhibitor control were prepared at 6× in standard growth media. The prepared drug treatments were then added to the cells resulting in a final concentration of 100-300 nM and a final volume of 3.0 mL per well. A control well of untreated cells was also included in the study. Each drug concentration was tested in singlet. Plates were incubated at 5% CO2, 37° C. for 24 hours in a tissue culture incubator.
After 24 hours, the adherent cells were lifted off tissue culture plates using 0.25% trypsin. Standard growth media was added to quench the trypsin and centrifuged for 5 minutes at 1500 rpm. Cell pellets were washed once with cold PBS and centrifuged for 5 minutes at 1500 rpm. Cells were then washed with 1 mL cold PBS and transferred to a 1.5 mL eppendorf tube. Cells were centrifuged for 10 minutes at ≥10,000 g at 4° C. in a benchtop mini-centrifuge. The entire supernatant was discarded and cells were resuspended thoroughly in 50 μL of RIPA lysis buffer, generated by the manufacturer's protocol (ProteinSimple, Cat. #CBS401: Lysis Kit—RIPA Buffer for Charge Assays). Lysates were incubated on ice for 30 minutes. Following incubation, lysates were spun in a benchtop mini-centrifuge for 15 minutes at full speed at 4° C. Supernatant was carefully transferred to a new eppendorf tube for downstream analysis.
Protein was quantified using a Pierce™ BCA Protein Assay Kit (ThermoFisher, cat #23225) following the manufacturer's instructions. A standard curve was prepared by adding 25 μL of each concentration of reference samples from a Pierce™ Bovine Serum Albumin Standard Pre-Diluted Set (ThermoFisher, cat #23208). Each reference sample was run in duplicate. Testing samples were prepared by diluting cell lysates 1:5 in UltraPure™ DNase/RNase-Free Distilled Water and tested in duplicates of 25 μL each. The BCA working reagent was prepared by addition of 50 parts of BCA Reagent A with 1 part of BCA Reagent B. For each testing well, 200 μL of BCA working reagent was added. The plate was incubated at 37° C. for 30 minutes. A SpectraMax M Series Multi-Mode Microplate Reader was used to measure the absorbance at 562 nm. A standard curve generated by the Pierce™ Bovine Serum Albumin Standard Pre-Diluted Set was used to normalize and calculate the BCA concentration of cell lysates. Only values that fell within the range of the standard curve were accepted for quantification.
The ProteinSimple 2-40 kDa Jess Separation Module was used to detect BCL-xL degradation in treated versus untreated lysates following the manufacturer's instructions (25-Capillary Cartridge, 8 pack, 2-40 kDa, cat #SM W012). […]

COR-L105 = test: CellTiter-Glo proliferation assay, COR-L105; conditions: Homo sapiens, COR-L105, 120 h, COR-L105, 5 days; for Emax: read-out: COR-L105 Span (max)
In short: as §1

| Structure (SMILES) | IC50 (NCI-H1650) | Emax (NCI-H1650) | remaining activity at 0.3 µM (endogenous BCL-xL) | IC50 (COR-L105) | Emax (COR-L105) |
| --- | --- | --- | --- | --- | --- |
| Cc1ncsc1-c1ccc(CNC(=O)[C@@H]2C[C@@H](O)CN2C(=O)[C@@H](NC(=O)C2(F)CC2)C(C)(C)C)c(OCC(=O)N2CCN(CCOC34CC5(C)CC(C)(CC(Cn6ncc(-c7ccc(N8CCCc9c8nnc(Nc8nc%10ccccc%10s8)c9C)nc7C(=O)O)c6C)(C5)C3)C4)CC2)c1 [Example 50, 6-(3-(benzo[d]thiazol-2-ylamino)-4-methyl-6,7-dihydropyrido [2,3-c]pyridazin-8(5H)-yl)-3-(1-(((1r,3s,5R,7S)-3-(2-(4-(2-(2-(((2S,4R)-1-((S)-2-(1-fluorocyclopropane-1-carboxamido)-3,3-dimethylbutanoyl)-4-hydroxypyrrolidine-2-carboxamido)methyl)-5-(4-methylthiazol-5-yl)phenoxy)acetyl)piperazin-1-yl)ethoxy)-5,7-dimethyladamantan-1-yl)methyl)-5-methyl-1H-pyrazol-4-yl)picolinic acid] | 25.9 nM | 93.8% | 88% | 287 nM | 90.2% |
| Cc1ncsc1-c1ccc([C@H](C)NC(=O)[C@@H]2C[C@@H](O)CN2C(=O)[C@@H](NC(=O)CCCCCCCCN2CCN(CC#Cc3ccc(OCCCc4sc(N5CCCc6c5nnc(Nc5nc7ccccc7s5)c6C)nc4C(=O)O)c(F)c3)CC2)C(C)(C)C)cc1 [Example 52, 2-(3-(benzo[d]thiazol-2-ylamino)-4-methyl-6,7-dihydropyrido [2,3-c]pyridazin-8(5H)-yl)-5-(3-(2-fluoro-4-(3-(4-(9-(((S)-1-((2S,4R)-4-hydroxy-2-(((S)-1-(4-(4-methylthiazol-5-yl)phenyl)ethyl)carbamoyl)pyrrolidin-1-yl)-3,3-dimethyl-1-oxobutan-2-yl)amino)-9-oxononyl)piperazin-1-yl)prop-1-yn-1-yl)phenoxy)propyl)thiazole-4-carboxylic acid] | 2.82 nM | 60.8% | 28.6% | 9.93 nM | 80.6% |
| Cc1ncsc1-c1ccc(CNC(=O)[C@@H]2C[C@@H](O)CN2C(=O)[C@@H](NC(=O)C2(F)CC2)C(C)(C)C)c(OCC(=O)NCCCCCN2CCN(CC#Cc3ccc(OCCCc4sc(N5CCCc6c5nnc(Nc5nc7ccccc7s5)c6C)nc4C(=O)O)c(F)c3)CC2)c1 [Example 53, 2-(3-(benzo[d]thiazol-2-ylamino)-4-methyl-6,7-dihydropyrido [2,3-c]pyridazin-8(5H)-yl)-5-(3-(2-fluoro-4-(3-(4-(5-(2-(2-(((2S,4R)-1-((S)-2-(1-fluorocyclopropane-1-carboxamido)-3,3-dimethylbutanoyl)-4-hydroxypyrrolidine-2-carboxamido)methyl)-5-(4-methylthiazol-5-yl)phenoxy)acetamido)pentyl)piperazin-1-yl)prop-1-yn-1-yl)phenoxy)propyl)thiazole-4-carboxylic acid] | 4.46 nM | 79.3% | 48.3% | 33.4 nM | 97.9% |
| Cc1ncsc1-c1ccc(CNC(=O)[C@@H]2C[C@@H](O)CN2C(=O)[C@@H](NC(=O)C2(F)CC2)C(C)(C)C)c(OCC(=O)N(C)CCCCCN2CCN(CC#Cc3ccc(OCCCc4sc(N5CCCc6c5nnc(Nc5nc7ccccc7s5)c6C)nc4C(=O)O)c(F)c3)CC2)c1 [Example 54, 2-(3-(benzo[d]thiazol-2-ylamino)-4-methyl-6,7-dihydropyrido [2,3-c]pyridazin-8(5H)-yl)-5-(3-(2-fluoro-4-(3-(4-(5-(2-(2-(((2S,4R)-1-((S)-2-(1-fluorocyclopropane-1-carboxamido)-3,3-dimethylbutanoyl)-4-hydroxypyrrolidine-2-carboxamido)methyl)-5-(4-methylthiazol-5-yl)phenoxy)-N-methylacetamido)pentyl)piperazin-1-yl)prop-1-yn-1-yl)phenoxy)propyl)thiazole-4-carboxylic acid] | 5.75 nM | 76.7% | 47.9% | 31.6 nM | 91.9% |
